Read-outs that look alike come from different tables or passages of the source.
Experiments:
[1] = target: T1, human Arginine Vasopressin Receptor 1a (AVPR1a) (Homo sapiens, UniProt P37288); test: Vasopressin V1a receptor antagonist assay (FLIPR calcium, CHO-AVPR1a cells); assay type: cell-based
T1 construct: expressed in transfected cells; host or cells: CHO (CHO-AVPR1a, kept under G418 selection)
How it was run: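 CHO cells expressing human AVPR1a were loaded with Calcium-6 dye and preincubated with compound for 15 min at 37° C. Cells were then challenged with AVP at its daily-determined EC80, and FLIPR fluorescence was read. Compounds were tested in duplicate as 10-point 1:3 dilutions from a top final concentration of 3 μM.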

MDR1 (P-glycoprotein) = target: T2, MDR1 (P-glycoprotein) (Homo sapiens, UniProt P08183); test: MDR1-MDCK permeability and efflux assay (Papp, efflux ratio, effective efflux ratio); assay type: in vitro ADME; settings: for efflux ratio at 1 h, 10 μM / Papp A→B at 1 h, 10 μM: dog; for Papp A→B at 1 h, 10 μM: pH 7.4, read-out: Papp AB MDR1; for Papp A→B at 1 h, 10 μM / Papp AB MDR1: A->B; for EER (Effective Efflux Ratio): ER(MDR1-MDCK)/ER(wild-type MDCK); for ER MDR1 (Efflux Ratio): Papp B>A/Papp A>B
T2 construct: host or cells: MDCK (MDR1-MDCK; wild-type MDCK as comparator)
How it was run: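 Bidirectional transport measured over 1 h at 37 °C with 10 μM test compound (0.1% DMSO) in pH 7.4 HEPES-buffered HBSS across MDR1-transfected and wild-type MDCK monolayers, analysed by LC-MS/MS. Efflux ratio is B>A over A>B Papp; effective efflux ratio divides MDR1-MDCK ER by wild-type ER.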

[2] = MDCK-MDR1, pH 7.4, ER(MDR1-MDCK)/ER(wild-type MDCK), read-out: EER (Effective Efflux Ratio)
[3] = MDCK-MDR1, pH 7.4, Papp B>A/Papp A>B, MDR1-MDCK cells, read-out: ER MDR1 (Efflux Ratio)

T2 sequence (P08183 whole entry): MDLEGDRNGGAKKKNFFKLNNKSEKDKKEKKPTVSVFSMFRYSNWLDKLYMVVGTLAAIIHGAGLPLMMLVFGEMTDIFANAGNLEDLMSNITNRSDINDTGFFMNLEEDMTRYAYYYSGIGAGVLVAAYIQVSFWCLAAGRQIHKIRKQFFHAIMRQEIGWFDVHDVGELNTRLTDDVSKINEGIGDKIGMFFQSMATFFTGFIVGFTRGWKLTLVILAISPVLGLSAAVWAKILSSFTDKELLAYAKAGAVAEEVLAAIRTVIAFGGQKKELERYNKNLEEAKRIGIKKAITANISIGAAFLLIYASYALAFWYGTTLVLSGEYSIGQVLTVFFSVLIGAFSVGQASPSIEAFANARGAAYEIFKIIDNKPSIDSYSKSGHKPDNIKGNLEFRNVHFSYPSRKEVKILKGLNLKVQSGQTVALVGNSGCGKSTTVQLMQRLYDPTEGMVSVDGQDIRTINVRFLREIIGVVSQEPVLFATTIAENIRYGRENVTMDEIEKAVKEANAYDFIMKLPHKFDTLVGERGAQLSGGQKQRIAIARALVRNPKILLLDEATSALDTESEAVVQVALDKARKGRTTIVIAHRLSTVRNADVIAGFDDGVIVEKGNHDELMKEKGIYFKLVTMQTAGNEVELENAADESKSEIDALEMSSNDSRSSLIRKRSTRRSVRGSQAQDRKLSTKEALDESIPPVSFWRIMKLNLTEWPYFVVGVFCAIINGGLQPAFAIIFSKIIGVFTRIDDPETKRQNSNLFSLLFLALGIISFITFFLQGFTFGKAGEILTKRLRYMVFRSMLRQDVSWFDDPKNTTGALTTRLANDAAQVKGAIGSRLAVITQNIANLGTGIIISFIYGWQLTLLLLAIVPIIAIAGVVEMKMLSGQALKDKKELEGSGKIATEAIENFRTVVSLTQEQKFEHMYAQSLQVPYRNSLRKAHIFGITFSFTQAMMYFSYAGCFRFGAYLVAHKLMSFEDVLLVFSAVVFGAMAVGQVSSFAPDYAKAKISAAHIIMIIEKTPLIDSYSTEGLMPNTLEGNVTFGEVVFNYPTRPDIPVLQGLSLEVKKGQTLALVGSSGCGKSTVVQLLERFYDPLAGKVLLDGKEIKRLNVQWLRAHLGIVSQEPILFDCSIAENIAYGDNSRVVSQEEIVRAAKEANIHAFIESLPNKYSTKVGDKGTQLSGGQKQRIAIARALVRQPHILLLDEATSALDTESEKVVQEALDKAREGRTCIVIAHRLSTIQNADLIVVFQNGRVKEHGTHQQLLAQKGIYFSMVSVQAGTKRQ
T1 sequence (P37288 whole entry): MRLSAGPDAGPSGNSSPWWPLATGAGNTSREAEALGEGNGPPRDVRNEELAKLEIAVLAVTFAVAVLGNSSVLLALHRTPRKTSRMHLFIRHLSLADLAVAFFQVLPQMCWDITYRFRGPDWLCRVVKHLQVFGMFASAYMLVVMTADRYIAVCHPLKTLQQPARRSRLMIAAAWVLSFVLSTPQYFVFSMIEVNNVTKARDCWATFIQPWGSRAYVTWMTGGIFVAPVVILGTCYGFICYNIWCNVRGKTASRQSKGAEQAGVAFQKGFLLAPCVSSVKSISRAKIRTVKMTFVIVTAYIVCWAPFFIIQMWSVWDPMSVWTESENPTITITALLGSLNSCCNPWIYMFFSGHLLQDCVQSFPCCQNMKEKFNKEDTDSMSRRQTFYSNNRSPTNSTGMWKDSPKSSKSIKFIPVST

Compound	IC50 [1] [nM]	efflux ratio at 1 h, 10 μM (MDR1 (P-glycoprotein); [2])	efflux ratio at 1 h, 10 μM (MDR1 (P-glycoprotein); [3])	Papp A→B at 1 h, 10 μM (MDR1 (P-glycoprotein); MDR1-MDCK cells) [×10⁻⁶ cm/s]	Papp AB MDR1 (MDR1 (P-glycoprotein); MDR1-MDCK cells)	EER (Effective Efflux Ratio) (MDR1 (P-glycoprotein))	ER MDR1 (Efflux Ratio) (MDR1 (P-glycoprotein); MDR1-MDCK cells)
CC1COc2cc(F)ccc2N1C(=O)N1CC2(C1)CN(c1cc(C#N)ccn1)C2 (single isomer, unassigned) [20-3-B]	< 100	1 to 2	1 to 2	> 20	–	–	–
CC1COc2cc(Cl)c(F)cc2N1C(=O)N1CC2(C1)CN(c1cccnn1)C2 (single isomer, unassigned) [19-4-A]	< 100	2 to 3	2 to 3	> 20	–	–	–
Cc1ccnc(N2CC3(CN(C(=O)N4c5ccc(F)cc5OCC4C)C3)C2)c1 (single isomer, unassigned) [20-4-B]	< 100	1 to 2	< 1	> 20	–	–	–
CC1COc2cc(Cl)c(F)cc2N1C(=O)N1CC2(C1)CN(c1ncccn1)C2 (single isomer, unassigned) [19-2-B]	< 100	< 1	1 to 2	> 20	–	–	–
COc1ccnc(N2CC3(CN(C(=O)N4c5ccc(Cl)cc5OCC4C)C3)C2)n1 (single isomer, unassigned) [20-9-B]	< 100	1 to 2	1 to 2	> 20	–	–	–
CC1COc2cc(F)ccc2N1C(=O)N1CC2(C1)CN(c1noc3ccccc13)C2 (single isomer, unassigned) [4-3-B]	< 100	< 1	< 1	> 20	–	–	–
Cc1ccnc(N2CC3(CN(C(=O)N4c5ccc(Cl)cc5OCC4C)C3)C2)n1 (single isomer, unassigned) [20-12-B]	< 100	1 to 2	1 to 2	> 20	–	–	–
CC1COc2cc(F)ccc2N1C(=O)N1CC2(C1)CN(c1ccc(F)cn1)C2 (single isomer, unassigned) [12-1-B]	< 100	–	–	–	++++ (>20 (10^−6 cm/sec) is highly permeable (++++))	+++ (>1 but <2 has moderate probability of being an efflux substrate (+++))	++++ (efflux ratio or effective efflux ratio of <1 has low probability of being an efflux substrate (++++))
CC1COc2cc(Cl)ccc2N1C(=O)N1CC2(C1)CN(c1noc3cccnc13)C2 (single isomer, unassigned) [18-3-B]	< 100	< 1	< 1	> 20	–	–	–
CC1COc2cc(Cl)ccc2N1C(=O)N1CC2(C1)CN(c1cccnn1)C2 (single isomer, unassigned) [9-1-B]	< 100	2 to 3	> 3	> 20	–	–	–
CC1COc2cc(F)c(F)cc2N1C(=O)N1CC2(C1)CN(c1ncccn1)C2 (single isomer, unassigned) [19-1-B]	< 100	< 1	1 to 2	> 20	–	–	–
Cc1cncc(N2CC3(CN(C(=O)N4c5ccc(F)cc5OCC4C)C3)C2)n1 (single isomer, unassigned) [20-2-A]	500 to 1000	1 to 2	1 to 2	> 20	–	–	–
O=C(N1CC2(C1)CN(c1ccc(F)cn1)C2)N1CCC(O)c2cc(Cl)ccc21 (single isomer, unassigned) [13-1-A]	< 100	> 3	> 3	> 20	–	–	–
O=C(N1CC2(C1)CN(c1ccccn1)C2)N1CCC(O)c2cc(Cl)ccc21 (single isomer, unassigned) [13-2-B]	< 100	> 3	> 3	> 20	–	–	–
Cc1cncc(N2CC3(CN(C(=O)N4c5ccc(F)cc5OCC4C)C3)C2)n1 (single isomer, unassigned) [20-2-B]	< 100	–	–	–	++++ (>20 (10^−6 cm/sec) is highly permeable (++++))	+++ (>1 but <2 has moderate probability of being an efflux substrate (+++))	+++ (>1 but <2 has moderate probability of being an efflux substrate (+++))
Cc1nc(N2CC3(CN(C(=O)N4c5ccc(Cl)cc5OCC4C)C3)C2)ncc1F (single isomer, unassigned) [20-7-B]	< 100	–	–	–	++++ (>20 (10^−6 cm/sec) is highly permeable (++++))	+++ (>1 but <2 has moderate probability of being an efflux substrate (+++))	++++ (efflux ratio or effective efflux ratio of <1 has low probability of being an efflux substrate (++++))
Cc1nccnc1N1CC2(CN(C(=O)N3c4ccc(Cl)cc4OCC3C)C2)C1 (single isomer, unassigned) [20-10-A]	< 100	1 to 2	1 to 2	> 20	–	–	–
CC1COc2cc(Cl)ccc2N1C(=O)N1CC2(C1)CN(c1cc(C#N)ccn1)C2 (single isomer, unassigned) [20-6-B]	< 100	–	–	–	++++ (>20 (10^−6 cm/sec) is highly permeable (++++))	++++ (efflux ratio or effective efflux ratio of <1 has low probability of being an efflux substrate (++++))	++++ (efflux ratio or effective efflux ratio of <1 has low probability of being an efflux substrate (++++))

Continued, in another order:

IC50 [1] [nM]	efflux ratio at 1 h, 10 μM (MDR1 (P-glycoprotein); [2])	efflux ratio at 1 h, 10 μM (MDR1 (P-glycoprotein); [3])	Papp A→B at 1 h, 10 μM (MDR1 (P-glycoprotein); MDR1-MDCK cells) [×10⁻⁶ cm/s]	Compound	Papp AB MDR1 (MDR1 (P-glycoprotein); MDR1-MDCK cells)	EER (Effective Efflux Ratio) (MDR1 (P-glycoprotein))	ER MDR1 (Efflux Ratio) (MDR1 (P-glycoprotein); MDR1-MDCK cells)
< 100	1 to 2	1 to 2	> 20	O=C(N1CC2(C1)CN(c1ccc(F)cn1)C2)N1CCOCc2cc(Cl)ccc21 [8-4]	–	–	–
< 100	1 to 2	< 1	> 20	O=C(N1CC2(C1)CN(c1ccc(F)cn1)C2)N1CCC(F)(F)c2cc(Cl)ccc21 [17-1, (6-chloro-4,4-difluoro-3,4-dihydroquinolin-1(2H)-yl)(6-(5-fluoropyridin-2-yl)-2,6-diazaspiro[3.3]heptan-2-yl)methanone]	–	–	–
< 100	1 to 2	1 to 2	> 20	Cc1cncc(N2CC3(CN(C(=O)N4c5ccc(F)cc5OCC4C)C3)C2)n1 (stereo not shown) [20-2]	–	–	–
< 100	1 to 2	< 1	> 20	O=C(N1CC2(C1)CN(c1ccccn1)C2)N1CCOc2cc(Cl)ccc21 [8-2]	–	–	–
< 100	< 1	1 to 2	> 20	O=C(N1CC2(C1)CN(c1cnccn1)C2)N1CCc2cc(Cl)ccc21 [8-14]	–	–	–
< 100	1 to 2	< 1	> 20	O=C(N1CC2(C1)CN(c1ccc(F)cn1)C2)N1CCOc2cc(Cl)ccc21 [9-7]	–	–	–
< 100	2 to 3	2 to 3	> 20	O=C(N1CC2(C1)CN(c1ccccn1)C2)N1CCOCc2cc(Cl)ccc21 [8-12]	–	–	–
< 100	< 1	< 1	> 20	COc1ccnc(N2CC3(CN(C(=O)N4c5ccc(Cl)cc5OCC4C)C3)C2)c1 (stereo not shown) [20-8]	–	–	–
< 100	< 1	< 1	> 20	CC1COc2cc(Cl)ccc2N1C(=O)N1CC2(C1)CN(c1noc3cccnc13)C2 (stereo not shown) [18-3]	–	–	–
< 100	< 1	< 1	> 20	Cc1ccnc(N2CC3(CN(C(=O)N4c5ccc(Cl)cc5OCC4C)C3)C2)c1 (stereo not shown) [20-11]	–	–	–
< 100	> 3	> 3	> 20	O=C(N1CC2(C1)CN(c1ccc(F)cn1)C2)N1CCC(O)c2cc(Cl)ccc21 (stereo not shown) [13-1, (6-chloro-4-hydroxy-3,4-dihydroquinolin-1(2H)-yl)(6-(5-fluoropyridin-2-yl)-2,6-diazaspiro[3.3]heptan-2-yl)methanone]	–	–	–
< 100	< 1	< 1	> 20	CC1COc2cc(Cl)c(F)cc2N1C(=O)N1CC2(C1)CN(c1cccnn1)C2 (stereo not shown) [19-4]	–	–	–
< 100	1 to 2	1 to 2	> 20	O=C(N1CC2(C1)CN(c1cnccn1)C2)N1CCOc2cc(Cl)ccc21 [8-3]	–	–	–
< 100	< 1	< 1	> 20	COc1ccnc(N2CC3(CN(C(=O)N4c5ccc(Cl)cc5OCC4C)C3)C2)n1 (stereo not shown) [20-9]	–	–	–
< 100	< 1	< 1	> 20	O=C(N1CC2(C1)CN(c1ccc(F)cn1)C2)N1CCc2cc(Cl)ccc21 [8-11]	–	–	–
< 100	< 1	< 1	> 20	CC1COc2cc(F)ccc2N1C(=O)N1CC2(C1)CN(c1noc3ccccc13)C2 (stereo not shown) [4-3]	–	–	–

— US12152038B2, “Vasopressin receptor antagonists and products and methods related thereto” (Neumora Therapeutics, Inc., priority 2017, dated 2024)
